We go through 18 compounds from US20260015358A1, “BICYCLIC DERIVATIVES, COMPOSITIONS AND USES THEREOF” (Danatlas Pharmaceuticals Co., Ltd., priority 2023, published 2026).

The target of test [1] is T1, WRN [UniPro: Q14191 (WRN_HUMAN), N500-C946] (Homo sapiens (Human), UniProt Q14191). As to the kind of experiment: WRN ATPase assay (ADP-Glo). The class given is biochemical. The note with it: WRN enzymatic activity assay.
The target of test [2] is T1, WRN [UniPro: Q14191 (WRN_HUMAN), N500-C946]. As to the kind of experiment: WRN unwinding assay (FORKF DNA, fluorescence). The class given is biochemical. To be noted: Table 14.

T1 sequence (Q14191 500-946): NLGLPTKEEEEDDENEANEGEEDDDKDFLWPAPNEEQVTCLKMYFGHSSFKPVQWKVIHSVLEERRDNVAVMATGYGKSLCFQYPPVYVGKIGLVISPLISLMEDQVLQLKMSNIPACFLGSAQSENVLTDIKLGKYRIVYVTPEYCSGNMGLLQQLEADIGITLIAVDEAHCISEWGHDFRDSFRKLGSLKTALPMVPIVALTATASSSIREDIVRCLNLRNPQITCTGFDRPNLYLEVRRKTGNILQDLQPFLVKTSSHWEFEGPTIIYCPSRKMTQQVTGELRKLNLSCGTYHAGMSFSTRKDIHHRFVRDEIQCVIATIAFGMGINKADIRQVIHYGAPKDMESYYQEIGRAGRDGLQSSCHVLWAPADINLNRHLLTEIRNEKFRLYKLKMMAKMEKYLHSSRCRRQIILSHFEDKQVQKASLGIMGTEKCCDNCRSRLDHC

The IC50 is the midpoint of a concentration-inhibition curve. The low end stands for greater potency, the high end for weaker potency. On to `CCc1c(N2CCN(C(=O)CNC(=O)c3ccccn3)CC2)c(=O)n2nc(C3=CCOCC3)nc2n1CC(=O)Nc1ccc(C(F)(F)F)cc1Cl` [Example 95, N-(2-(4-(4-(2-((2-Chloro-4-(trifluoromethyl)phenyl)amino)-2-oxoethyl)-2-(3,6-dihydro-2H-pyran-4-yl)-5-ethyl-7-oxo-4,7-dihydro-[1,2,4]triazolo[1,5-a]pyrimidin-6-yl)piperazin-1-yl)-2-oxoethyl)picolinamide], for which the IC50 in test [1] and in test [2] was less than 100 nM in each case.

On to `CCc1c(N2CCN(C(=O)CNC(=O)c3ccncc3)CC2)c(=O)n2nc(C3=CCOCC3)nc2n1CC(=O)Nc1ccc(C(F)(F)F)cc1Cl` [Example 96, N-(2-(4-(4-(2-((2-Chloro-4-(trifluoromethyl)phenyl)amino)-2-oxoethyl)-2-(3,6-dihydro-2H-pyran-4-yl)-5-ethyl-7-oxo-4,7-dihydro-[1,2,4]triazolo[1,5-a]pyrimidin-6-yl)piperazin-1-yl)-2-oxoethyl)isonicotinamide], for which the IC50 in test [1] and in test [2] was less than 100 nM in each case.

For the compound `CCc1c(N2CCN(C(=O)CNC(=O)c3ccccc3F)CC2)c(=O)n2nc(C3=CCOCC3)nc2n1CC(=O)Nc1ccc(C(F)(F)F)cc1Cl` [Example 97, N-(2-(4-(4-(2-((2-Chloro-4-(trifluoromethyl)phenyl)amino)-2-oxoethyl)-2-(3,6-dihydro-2H-pyran-4-yl)-5-ethyl-7-oxo-4,7-dihydro-[1,2,4]triazolo[1,5-a]pyrimidin-6-yl)piperazin-1-yl)-2-oxoethyl)-2-fluorobenzamide], the IC50 in test [1] and in test [2] was less than 100 nM throughout.

On to `CCc1c(N2CCN(C(=O)CNC(=O)c3ccc(F)cc3)CC2)c(=O)n2nc(C3=CCOCC3)nc2n1CC(=O)Nc1ccc(C(F)(F)F)cc1Cl` [Example 98, N-(2-(4-(4-(2-((2-Chloro-4-(trifluoromethyl)phenyl)amino)-2-oxoethyl)-2-(3,6-dihydro-2H-pyran-4-yl)-5-ethyl-7-oxo-4,7-dihydro-[1,2,4]triazolo[1,5-a]pyrimidin-6-yl)piperazin-1-yl)-2-oxoethyl)-4-fluorobenzamide], for which the IC50 in test [1] and in test [2] was less than 100 nM throughout.

For `CCc1c(N2CCN(C(=O)CNC(=O)c3cccc(F)c3)CC2)c(=O)n2nc(C3=CCOCC3)nc2n1CC(=O)Nc1ccc(C(F)(F)F)cc1Cl` [Example 99, N-(2-(4-(4-(2-((2-Chloro-4-(trifluoromethyl)phenyl)amino)-2-oxoethyl)-2-(3,6-dihydro-2H-pyran-4-yl)-5-ethyl-7-oxo-4,7-dihydro-[1,2,4]triazolo[1,5-a]pyrimidin-6-yl)piperazin-1-yl)-2-oxoethyl)-3-fluorobenzamide], the IC50 in test [1] and in test [2] was less than 100 nM throughout.

Take `CCc1c(N2CCN(C(=O)CNC(=O)c3nccs3)CC2)c(=O)n2nc(C3=CCOCC3)nc2n1CC(=O)Nc1ccc(C(F)(F)F)cc1Cl` [Example 100, N-(2-(4-(4-(2-((2-Chloro-4-(trifluoromethyl)phenyl)amino)-2-oxoethyl)-2-(3,6-dihydro-2H-pyran-4-yl)-5-ethyl-7-oxo-4,7-dihydro-[1,2,4]triazolo[1,5-a]pyrimidin-6-yl)piperazin-1-yl)-2-oxoethyl)thiazole-2-carboxamide]: the IC50 in test [1] and in test [2] was less than 100 nM in each case.

`CCc1c(N2CCN(C(=O)CNC(=O)c3ccn[nH]3)CC2)c(=O)n2nc(C3=CCOCC3)nc2n1CC(=O)Nc1ccc(C(F)(F)F)cc1Cl` [Example 101, N-(2-(4-(4-(2-((2-Chloro-4(trifluoromethyl)phenyl)amino)-2-oxoethyl)-2-(3,6-dihydro-2H-pyran-4-yl)-5-ethyl-7-oxo-4,7-dihydro-[1,2,4]triazolo[1,5-a]pyrimidin-6-yl)piperazin-1-yl)-2-oxoethyl)-1H-pyrazole-5-carboxamide]: the IC50 in test [1] and in test [2] was less than 100 nM throughout.

As for `CCc1c(N2CCN(C(=O)CNC(=O)c3ccn(C)n3)CC2)c(=O)n2nc(C3=CCOCC3)nc2n1CC(=O)Nc1ccc(C(F)(F)F)cc1Cl` [Example 102, N-(2-(4-(4-(2-((2-Chloro-4-(trifluoromethyl)phenyl)amino)-2-oxoethyl)-2-(3,6-dihydro-2H-pyran-4-yl)-5-ethyl-7-oxo-4,7-dihydro-[1,2,4]triazolo[1,5-a]pyrimidin-6-yl)piperazin-1-yl)-2-oxoethyl)-1-methyl-1H-pyrazole-3-carboxamide], the IC50 in test [1] and in test [2] was less than 100 nM throughout.

With `CCc1c(N2CCN(C(=O)CNC(=O)c3cnn(C)c3)CC2)c(=O)n2nc(C3=CCOCC3)nc2n1CC(=O)Nc1ccc(C(F)(F)F)cc1Cl` [Example 103, N-(2-(4-(4-(2-((2-Chloro-4-(trifluoromethyl)phenyl)amino)-2-oxoethyl)-2-(3,6-dihydro-2H-pyran-4-yl)-5-ethyl-7-oxo-4,7-dihydro-[1,2,4]triazolo[1,5-a]pyrimidin-6-yl)piperazin-1-yl)-2-oxoethyl)-1-methyl-1H-pyrazole-4-carboxamide], the IC50 in test [1] and in test [2] was less than 100 nM throughout.

Take `CCc1c(N2CCN(C(=O)CNC(=O)c3cccc(Cl)c3Cl)CC2)c(=O)n2nc(C3=CCOCC3)nc2n1CC(=O)Nc1ccc(C(F)(F)F)cc1Cl` [Example 104, 2,3-Dichloro-N-(2-(4-(4-(2-((2-chloro-4-(trifluoromethyl)phenyl)amino)-2-oxoethyl)-2-(3,6-dihydro-2H-pyran-4-yl)-5-ethyl-7-oxo-4,7-dihydro-[1,2,4]triazolo[1,5-a]pyrimidin-6-yl)piperazin-1-yl)-2-oxoethyl)benzamide]: the IC50 in test [1] was 100 to 1000 nM; in test [2], less than 100 nM.

With `CCc1c(N2CCN(C(=O)CNC(=O)c3csc(C)n3)CC2)c(=O)n2nc(C3=CCOCC3)nc2n1CC(=O)Nc1ccc(C(F)(F)F)cc1Cl` [Example 105, N-(2-(4-(4-(2-((2-Chloro-4-(trifluoromethyl)phenyl)amino)-2-oxoethyl)-2-(3,6-dihydro-2H-pyran-4-yl)-5-ethyl-7-oxo-4,7-dihydro-[1,2,4]triazolo[1,5-a]pyrimidin-6-yl)piperazin-1-yl)-2-oxoethyl)-2-methylthiazole-4-carboxamide], the IC50 in test [1] is 100 to 1000 nM; in test [2], less than 100 nM.

Take `CCc1c(N2CCN(C(=O)CNC(=O)c3ncc[nH]3)CC2)c(=O)n2nc(C3=CCOCC3)nc2n1CC(=O)Nc1ccc(C(F)(F)F)cc1Cl` [Example 106, N-(2-(4-(4-(2-((2-Chloro-4-(trifluoromethyl)phenyl)amino)-2-oxoethyl)-2-(3,6-dihydro-2H-pyran-4-yl)-5-ethyl-7-oxo-4,7-dihydro-[1,2,4]triazolo[1,5-a]pyrimidin-6-yl)piperazin-1-yl)-2-oxoethyl)-1H-imidazole-2-carboxamide]: the IC50 is 100 to 1000 nM in test [1] and less than 100 nM in test [2].

Regarding `CCc1c(N2CCN(C(=O)CNC(=O)c3cc(C)on3)CC2)c(=O)n2nc(C3=CCOCC3)nc2n1CC(=O)Nc1ccc(C(F)(F)F)cc1Cl` [Example 107, N-(2-(4-(4-(2-((2-Chloro-4-(trifluoromethyl)phenyl)amino)-2-oxoethyl)-2-(3,6-dihydro-2H-pyran-4-yl)-5-ethyl-7-oxo-4,7-dihydro-[1,2,4]triazolo[1,5-a]pyrimidin-6-yl)piperazin-1-yl)-2-oxoethyl)-5-methylisoxazole-3-carboxamide], the IC50 in test [1] and in test [2] was less than 100 nM each time.

For `CCc1c(N2CCN(C(=O)CNC(=O)c3c[nH][nH]c3=O)CC2)c(=O)n2nc(C3=CCOCC3)nc2n1CC(=O)Nc1ccc(C(F)(F)F)cc1Cl` [Example 108, N-(2-(4-(4-(2-((2-Chloro-4-(trifluoromethyl)phenyl)amino)-2-oxoethyl)-2-(3,6-dihydro-2H-pyran-4-yl)-5-ethyl-7-oxo-4,7-dihydro-[1,2,4]triazolo[1,5-a]pyrimidin-6-yl)piperazin-1-yl)-2-oxoethyl)-3-oxo-2,3-dihydro-1H-pyrazole-4-carboxamide], the IC50 in test [1] and in test [2] was less than 100 nM each time.

In the case of `CCc1c(N2CCN(C(=O)CNC(=O)c3cnn4cccc4c3O)CC2)c(=O)n2nc(C3=CCOCC3)nc2n1CC(=O)Nc1ccc(C(F)(F)F)cc1Cl` [Example 109, N-(2-(4-(4-(2-((2-Chloro-4-(trifluoromethyl)phenyl)amino)-2-oxoethyl)-2-(3,6-dihydro-2H-pyran-4-yl)-5-ethyl-7-oxo-4,7-dihydro-[1,2,4]triazolo[1,5-a]pyrimidin-6-yl)piperazin-1-yl)-2-oxoethyl)-4-hydroxypyrrolo[1,2-b]pyridazine-3-carboxamide], the IC50 in test [1] and in test [2] was less than 100 nM each time.

Turning to `CCc1c(N2CCN(C(=O)CNC(=O)c3cccnc3)CC2)c(=O)n2nc(C3=CCOCC3)nc2n1CC(=O)Nc1ccc(C(F)(F)F)cc1Cl` [Example 110, N-(2-(4-(4-(2-((2-Chloro-4-(trifluoromethyl)phenyl)amino)-2-oxoethyl)-2-(3,6-dihydro-2H-pyran-4-yl)-5-ethyl-7-oxo-4,7-dihydro-[1,2,4]triazolo[1,5-a]pyrimidin-6-yl)piperazin-1-yl)-2-oxoethyl)nicotinamide], the IC50 in test [1] and in test [2] was less than 100 nM each time.

As for `CCc1c(N2CCN(C(=O)CNC(=O)c3ccccc3Cl)CC2)c(=O)n2nc(C3=CCOCC3)nc2n1CC(=O)Nc1ccc(C(F)(F)F)cc1Cl` [Example 111, 2-Chloro-N-(2-(4-(4-(2-((2-chloro-4-(trifluoromethyl)phenyl)amino)-2-oxoethyl)-2-(3,6-dihydro-2H-pyran-4-yl)-5-ethyl-7-oxo-4,7-dihydro-[1,2,4]triazolo[1,5-a]pyrimidin-6-yl)piperazin-1-yl)-2-oxoethyl)benzamide], the IC50 in test [1] and in test [2] was less than 100 nM each time.

Consider `CCc1c(N2CCN(C(=O)CNC(=O)c3ccccc3OC)CC2)c(=O)n2nc(C3=CCOCC3)nc2n1CC(=O)Nc1ccc(C(F)(F)F)cc1Cl` [Example 112, N-(2-(4-(4-(2-((2-Chloro-4-(trifluoromethyl)phenyl)amino)-2-oxoethyl)-2-(3,6-dihydro-2H-pyran-4-yl)-5-ethyl-7-oxo-4,7-dihydro-[1,2,4]triazolo[1,5-a]pyrimidin-6-yl)piperazin-1-yl)-2-oxoethyl)-2-methoxybenzamide], for which the IC50 in test [1] and in test [2] was less than 100 nM each time.
